Laboratory results published in the NIST ThermoML archive (doi:10.1021/je060271a).
Numbers after ± are expanded uncertainties.

Settings: 323.14 K, Liquid, Vibrating tube method

CCCCCCC(=O)OCC(COC(=O)CCCCCC)(COC(=O)CCCCCC)COC(=O)CCCCCC [pentaerythritol tetraheptanoate]
Settings	mass density [kg/m3]
18264 kPa	967.6 ± 1.2
18279 kPa	967.6 ± 1.2
18292 kPa	967.7 ± 1.2
18304 kPa	967.6 ± 1.2
18320 kPa	967.6 ± 1.2
18332 kPa	967.6 ± 1.2
18347 kPa	967.6 ± 1.2
18360 kPa	967.7 ± 1.2
18373 kPa	967.7 ± 1.2
18385 kPa	967.8 ± 1.2
18401 kPa	967.7 ± 1.2
18413 kPa	967.8 ± 1.2
18426 kPa	967.6 ± 1.2
18442 kPa	967.8 ± 1.2
18454 kPa	967.7 ± 1.2
18469 kPa	967.7 ± 1.2
18482 kPa	967.7 ± 1.2
18495 kPa	967.7 ± 1.2
18511 kPa	967.7 ± 1.2
18920 kPa	967.9 ± 1.2
18933 kPa	968 ± 1.2
18964 kPa	968.1 ± 1.2
19110 kPa	968.3 ± 1.2
19518 kPa	968.3 ± 1.2
19532 kPa	968.3 ± 1.2
19550 kPa	968.4 ± 1.2
19962 kPa	968.7 ± 1.2
20010 kPa	968.7 ± 1.2
20615 kPa	969.1 ± 1.2
20951 kPa	969.3 ± 1.2
20968 kPa	969.2 ± 1.2
21002 kPa	969.4 ± 1.2
21114 kPa	969.2 ± 1.2
21149 kPa	969.4 ± 1.2
21166 kPa	969.4 ± 1.2
21187 kPa	969.4 ± 1.2
21204 kPa	969.5 ± 1.2
21222 kPa	969.3 ± 1.2
21243 kPa	969.4 ± 1.2
21261 kPa	969.4 ± 1.2
21812 kPa	969.9 ± 1.2
21889 kPa	969.8 ± 1.2
21912 kPa	969.9 ± 1.2
22010 kPa	969.9 ± 1.2
22028 kPa	970 ± 1.2
22051 kPa	969.9 ± 1.2
22255 kPa	970 ± 1.2
22294 kPa	970.1 ± 1.2
22673 kPa	970.3 ± 1.2
22693 kPa	970.2 ± 1.2
22738 kPa	970.5 ± 1.2
22934 kPa	970.5 ± 1.2
22955 kPa	970.5 ± 1.2
22976 kPa	970.5 ± 1.2
23001 kPa	970.4 ± 1.2
23022 kPa	970.6 ± 1.2
23064 kPa	970.5 ± 1.2
23111 kPa	970.6 ± 1.2
23132 kPa	970.6 ± 1.2
23157 kPa	970.6 ± 1.2
23178 kPa	970.5 ± 1.2
23200 kPa	970.6 ± 1.2
23225 kPa	970.5 ± 1.2
23246 kPa	970.5 ± 1.2
23268 kPa	970.7 ± 1.2
23294 kPa	970.7 ± 1.2
23315 kPa	970.7 ± 1.2
23358 kPa	970.7 ± 1.2
23384 kPa	970.8 ± 1.2
23431 kPa	970.8 ± 1.2
23453 kPa	970.8 ± 1.2
23474 kPa	970.7 ± 1.2
23496 kPa	970.9 ± 1.2
23522 kPa	970.8 ± 1.2
23544 kPa	970.8 ± 1.2
23566 kPa	970.8 ± 1.2
23592 kPa	970.8 ± 1.2
23614 kPa	970.8 ± 1.2
23755 kPa	971 ± 1.2
23777 kPa	970.9 ± 1.2
23805 kPa	971.1 ± 1.2
23827 kPa	971 ± 1.2
23853 kPa	970.9 ± 1.2
23875 kPa	971 ± 1.2
23898 kPa	971.1 ± 1.2
23921 kPa	971 ± 1.2
23948 kPa	971 ± 1.2
24439 kPa	971.4 ± 1.2
24490 kPa	971.3 ± 1.2
24592 kPa	971.5 ± 1.2
24645 kPa	971.6 ± 1.2
24693 kPa	971.5 ± 1.2
24722 kPa	971.5 ± 1.2
24746 kPa	971.5 ± 1.2
24799 kPa	971.6 ± 1.2
24824 kPa	971.6 ± 1.2
24848 kPa	971.6 ± 1.2
24874 kPa	971.5 ± 1.2
24903 kPa	971.6 ± 1.2
24928 kPa	971.6 ± 1.2
24957 kPa	971.7 ± 1.2
24981 kPa	971.5 ± 1.2
25006 kPa	971.7 ± 1.2
25031 kPa	971.8 ± 1.2
25061 kPa	971.7 ± 1.2
25387 kPa	971.9 ± 1.2
25413 kPa	972 ± 1.2
25633 kPa	972.1 ± 1.2
25717 kPa	972 ± 1.2
25828 kPa	972 ± 1.2
25860 kPa	972.3 ± 1.2
25888 kPa	972.3 ± 1.2
